Measured values: PubChem BioAssay AID248 (DTP/NCI, 2004)
Toxic doses and inconclusive results are not listed. Cut-off read from the data, not from the text of the source: active = T/C of 150% or more; inactive = T/C below 125%.

System: L1210 leukemia ip in BDF1 mice, survival T/C
Assay: NCI In Vivo Anticancer Drug Screen. Data for tumor model L1210 Leukemia (intraperitoneal) in B6D2F1 (BDF1) mice
Settings: endpoint: mean survival time, higher = longer survival
Summary of the method: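 Each compound was tested against a transplantable tumor grown in mice. The endpoint was survival, with treated animals benchmarked against vehicle controls as a simple ratio.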

[1] = dose: 50.0 mg/kg/injection, schedule: Q01DX009 (ip), vehicle: Klucel (hydroxypropylcellulose) (HPC)
[2] = dose: 100.0 mg/kg/injection, schedule: Q01DX009 (ip), vehicle: Klucel (hydroxypropylcellulose) (HPC)
[3] = dose: 100.0 mg/kg/injection, schedule: Q04DX003 (ip), vehicle: Klucel (hydroxypropylcellulose) (HPC)
[4] = dose: 200.0 mg/kg/injection, schedule: Q01DX009 (ip), vehicle: Klucel (hydroxypropylcellulose) (HPC)
[5] = dose: 200.0 mg/kg/injection, schedule: Q04DX003 (ip), vehicle: Klucel (hydroxypropylcellulose) (HPC)
[6] = dose: 25.0 mg/kg/injection, schedule: Q01DX009 (ip), vehicle: Klucel (hydroxypropylcellulose) (HPC)

Measured: T/C

CC(=O)[C@H]1CC[C@H]2[C@@H]3C[C@H](F)C4=CC(=O)CC[C@]4(C)[C@@]3(F)[C@@H](O)C[C@]12C
inactive: dose: 50.0 mg/kg/injection, schedule: Q01DX009 (sc), vehicle: steriod suspending solution 124 % of control | dose: 100.0 mg/kg/injection, schedule: Q01DX009 (sc), vehicle: steriod suspending solution 101 % of control | dose: 100.0 mg/kg/injection, schedule: Q04DX003 (sc), vehicle: steriod suspending solution 97 % of control | dose: 200.0 mg/kg/injection, schedule: Q01DX009 (sc), vehicle: steriod suspending solution 104 % of control | dose: 200.0 mg/kg/injection, schedule: Q04DX003 (sc), vehicle: steriod suspending solution 105 % of control | dose: 400.0 mg/kg/injection, schedule: Q04DX003 (sc), vehicle: steriod suspending solution 103 % of control

CC(=O)NC(C)C1(O)CCCCC1 (stereo not given)
inactive: dose: 100.0 mg/kg/injection, schedule: Q01DX009 (ip), vehicle: saline 101 % of control | dose: 200.0 mg/kg/injection, schedule: Q01DX009 (ip), vehicle: saline 96 % of control | dose: 400.0 mg/kg/injection, schedule: Q01DX009 (ip), vehicle: saline 98 % of control

Cc1cc2ccccc2c[n+]1C
inactive: dose: 12.5 mg/kg/injection, schedule: Q01DX009 (ip), vehicle: saline 95 % of control | dose: 12.5 mg/kg/injection, schedule: Q04DX003 (ip), vehicle: saline 106 % of control | dose: 25.0 mg/kg/injection, schedule: Q01DX009 (ip), vehicle: saline 101 % of control | dose: 25.0 mg/kg/injection, schedule: Q04DX003 (ip), vehicle: saline 90 % of control | dose: 50.0 mg/kg/injection, schedule: Q01DX009 (ip), vehicle: saline 108 % of control | dose: 50.0 mg/kg/injection, schedule: Q04DX003 (ip), vehicle: saline 107 % of control

COc1ccc(/C(C)=N/N=C(\C)c2ccc(OC)cc2)cc1
inactive: dose: 200.0 mg/kg/injection, schedule: Q04DX003 (ip), vehicle: saline with Tween-80 94 % of control | dose: 400.0 mg/kg/injection, schedule: Q04DX003 (ip), vehicle: saline with Tween-80 91 % of control

CCOC(=O)c1ccc(N(CCC(O)CN=[N+]=[N-])S(=O)(=O)c2ccc(C)cc2)cc1 (stereo not given)
inactive: dose: 50.0 mg/kg/injection, schedule: Q01DX001 (ip), vehicle: carboxymethylcellulose (CMC) 96 % of control | dose: 100.0 mg/kg/injection, schedule: Q01DX001 (ip), vehicle: carboxymethylcellulose (CMC) 100 % of control | dose: 200.0 mg/kg/injection, schedule: Q01DX001 (ip), vehicle: carboxymethylcellulose (CMC) 96 % of control | dose: 400.0 mg/kg/injection, schedule: Q01DX001 (ip), vehicle: carboxymethylcellulose (CMC) 100 % of control

CC(=O)Nc1c(C(N)=O)ncn1C1OC(COC(C)=O)C(OC(C)=O)C1OC(C)=O (stereo not given)
inactive: dose: 100.0 mg/kg/injection, schedule: Q01DX005 (ip), vehicle: saline 96 % of control | dose: 200.0 mg/kg/injection, schedule: Q01DX005 (ip), vehicle: saline 100 % of control

c1ccc(CNCc2ccccc2)cc1
inactive: [1] 93 % of control | [2] 93 % of control | [3] 95 % of control | [4] 100 % of control | [5] 95 % of control

C1CN=C2CCCN2C1
inactive: dose: 18.75 mg/kg/injection, schedule: Q01DX009 (ip), vehicle: saline 100 % of control | dose: 37.5 mg/kg/injection, schedule: Q01DX009 (ip), vehicle: saline 97 % of control

CC1(C)OC2C(CO)OC(n3cnc4c(N)ncnc43)C2O1 (stereo not given)
inactive: [6] 103 % of control | [1] 98 % of control | [2] 100 % of control | [3] 103 % of control | [5] 103 % of control

CCc1ccccc1NC(=O)NCc1ccc(C)c(C)c1
inactive: [6] 98 % of control | [1] 93 % of control | [2] 93 % of control | [4] 94 % of control | dose: 400.0 mg/kg/injection, schedule: Q01DX009 (ip), vehicle: Klucel (hydroxypropylcellulose) (HPC) 98 % of control
